Test results published in ChEMBL document CHEMBL1201862, “PubChem BioAssay data set” (2004).
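Cultured in 96-well plates, cells were exposed to test compound for 48 hours across five concentrations. GI50: concentration for 50% inhibition of growth.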 Active and inactive are the calls of the source. Rule as the data show it: active = GI50 up to about 1.1 µM and inactive = higher.

What was measured:
Test in all cases: NCI anticancer screen, dose series, 48 h
[1] = system: 786-0
[2] = system: A549
[3] = system: ACHN
[4] = system: BT-549
[5] = system: CAKI-1
[6] = system: CCRF-CEM
[7] = system: COLO 205
[8] = system: DU-145
[9] = system: EKVX
[10] = system: HCC 2998
[11] = system: HCT-116
[12] = system: HCT-15
[13] = system: HL-60
[14] = system: HOP-62
[15] = system: HOP-92
[16] = system: HT-29
[17] = system: Hs-578T
[18] = system: IGROV-1
[19] = system: K562
[20] = system: KM12
[21] = system: LOX IMVI
[22] = system: M14
[23] = system: MCF7
[24] = system: MDA-MB-231
[25] = system: MDA-MB-435
[26] = system: MDA-N
[27] = system: MOLT-4
[28] = system: Malme-3M
[29] = system: NCI-H226
[30] = system: NCI-H23
[31] = system: NCI-H460
[32] = system: NCI-H522
[33] = system: NCI/ADR-RES
[34] = system: OVCAR-3
[35] = system: OVCAR-4
[36] = system: OVCAR-5
[37] = system: OVCAR-8
[38] = system: PC-3
[39] = system: RPMI-8226
[40] = system: RXF 393
[41] = system: SF-268
[42] = system: SF-295
[43] = system: SF-539
[44] = system: SK-MEL-28
[45] = system: SK-MEL-2
[46] = system: SK-MEL-5
[47] = system: SK-OV-3
[48] = system: SN12C
[49] = system: SNB-19
[50] = system: SNB-75
[51] = system: SR
[52] = system: SW-620
[53] = system: T47D
[54] = system: TK-10
[55] = system: U-251
[56] = system: UACC-257
[57] = system: UACC-62
[58] = system: UO-31
[59] = system: A498

CCCCCCCCCCCCOCCCCCCCCC/C=C/c1ccc2c(c1)OCCOCCOCCOCCO2
GI50 [1]: 13.6 µM (inactive)
GI50 [2]: 17.6 µM (inactive)
GI50 [3]: 19.1 µM (inactive)
GI50 [4]: 23.4 µM (inactive)
GI50 [5]: 17.3 µM (inactive)
GI50 [6]: 39.5 µM (inactive)
GI50 [7]: 18.9 µM (inactive)
GI50 [8]: 33 µM (inactive)
GI50 [9]: 26.6 µM (inactive)
GI50 [10]: 17.9 µM (inactive)
GI50 [11]: 16 µM (inactive)
GI50 [12]: 45.9 µM
GI50 [13]: 28.8 µM (inactive)
GI50 [14]: 28 µM (inactive)
GI50 [15]: 12.2 µM (inactive)
GI50 [16]: 20.7 µM (inactive)
GI50 [17]: 16.4 µM (inactive)
GI50 [18]: 21.3 µM (inactive)
GI50 [19]: 31.3 µM (inactive)
GI50 [20]: 16.8 µM (inactive)
GI50 [21]: 19.3 µM (inactive)
GI50 [22]: 25.4 µM (inactive)
GI50 [23]: 16.3 µM (inactive)
GI50 [24]: 17.1 µM (inactive)
GI50 [25]: 18.3 µM (inactive)
GI50 [26]: 18.5 µM (inactive)
GI50 [27]: 28.7 µM (inactive)
GI50 [28]: 24.6 µM (inactive)
GI50 [29]: 17.8 µM (inactive)
GI50 [30]: 15.6 µM (inactive)
GI50 [31]: 18.4 µM (inactive)
GI50 [32]: 13.2 µM (inactive)
GI50 [33]: 17.5 µM (inactive)
GI50 [34]: 21.1 µM (inactive)
GI50 [35]: 19.3 µM (inactive)
GI50 [36]: 31 µM (inactive)
GI50 [37]: 12.7 µM (inactive)
GI50 [38]: 17.9 µM (inactive)
GI50 [39]: 17.7 µM (inactive)
GI50 [40]: 19.2 µM (inactive)
GI50 [41]: 22.8 µM (inactive)
GI50 [42]: 16.3 µM (inactive)
GI50 [43]: 17.4 µM (inactive)
GI50 [44]: 30.7 µM (inactive)
GI50 [45]: 15.8 µM (inactive)
GI50 [46]: 15.5 µM (inactive)
GI50 [47]: 17.5 µM (inactive)
GI50 [48]: 23.6 µM (inactive)
GI50 [49]: 33.3 µM (inactive)
GI50 [50]: 16.4 µM (inactive)
GI50 [51]: 21 µM (inactive)
GI50 [52]: 30.3 µM (inactive)
GI50 [53]: 24.9 µM (inactive)
GI50 [54]: 19.6 µM (inactive)
GI50 [55]: 22.8 µM (inactive)
GI50 [56]: 27 µM (inactive)
GI50 [57]: 15.1 µM (inactive)
GI50 [58]: 19.1 µM (inactive)

Oc1c(CN2CCOCC2)ccc(CN2CCOCC2)c1O
GI50 [1]: 37.5 µM (inactive)
GI50 [59]: > 100 µM (inactive)
GI50 [2]: 39.4 µM (inactive)
GI50 [3]: 30.9 µM (inactive)
GI50 [4]: 81.3 µM (inactive)
GI50 [5]: 52 µM (inactive)
GI50 [6]: 3.62 µM (inactive)
GI50 [7]: 45.9 µM (inactive)
GI50 [8]: 26.6 µM (inactive)
GI50 [9]: 50.8 µM (inactive)
GI50 [11]: 38 µM (inactive)
GI50 [12]: 34 µM
GI50 [13]: 3.8 µM (inactive)
GI50 [14]: 42.3 µM (inactive)
GI50 [15]: > 100 µM (inactive)
GI50 [16]: 52.1 µM (inactive)
GI50 [17]: > 100 µM (inactive)
GI50 [18]: 70.5 µM (inactive)
GI50 [19]: 34.3 µM (inactive)
GI50 [20]: 75.7 µM (inactive)
GI50 [21]: 39 µM (inactive)
GI50 [22]: 22.9 µM (inactive)
GI50 [23]: 35.2 µM (inactive)
GI50 [24]: > 100 µM (inactive)
GI50 [25]: 81.7 µM (inactive)
GI50 [26]: 50.2 µM (inactive)
GI50 [27]: 24.2 µM (inactive)
GI50 [28]: 31 µM (inactive)
GI50 [29]: 28.4 µM (inactive)
GI50 [30]: 36.6 µM (inactive)
GI50 [31]: 25.7 µM (inactive)
GI50 [32]: 29.6 µM (inactive)
GI50 [33]: 30.1 µM (inactive)
GI50 [34]: 21.2 µM (inactive)
GI50 [35]: > 100 µM (inactive)
GI50 [36]: 57 µM (inactive)
GI50 [37]: 47.2 µM (inactive)
GI50 [38]: 48 µM (inactive)
GI50 [39]: 50.1 µM (inactive)
GI50 [40]: 29.2 µM (inactive)
GI50 [41]: 30.9 µM (inactive)
GI50 [42]: 26 µM (inactive)
GI50 [43]: 25.7 µM (inactive)
GI50 [44]: 61.5 µM (inactive)
GI50 [45]: 29 µM (inactive)
GI50 [46]: 25.5 µM (inactive)
GI50 [47]: 54 µM (inactive)
GI50 [48]: 25.6 µM (inactive)
GI50 [49]: 43.3 µM (inactive)
GI50 [50]: 15.1 µM (inactive)
GI50 [51]: 24.5 µM (inactive)
GI50 [52]: 83.6 µM (inactive)
GI50 [53]: 39.7 µM (inactive)
GI50 [54]: 47.2 µM (inactive)
GI50 [55]: 40.1 µM (inactive)
GI50 [56]: 27.2 µM (inactive)
GI50 [57]: 25.2 µM (inactive)
GI50 [58]: 18 µM (inactive)

COc1ccc(-c2c(C#N)c(N)n(C3OCC(O)C(O)C3O)c(=S)c2C#N)cc1 (stereo not drawn)
GI50 [1]: > 100 µM (inactive)
GI50 [59]: > 100 µM (inactive)
GI50 [2]: > 100 µM (inactive)
GI50 [3]: > 100 µM (inactive)
GI50 [4]: > 100 µM (inactive)
GI50 [5]: > 100 µM (inactive)
GI50 [6]: > 100 µM (inactive)
GI50 [8]: > 100 µM (inactive)
GI50 [10]: > 100 µM (inactive)
GI50 [12]: > 100 µM
GI50 [13]: > 100 µM (inactive)
GI50 [14]: > 100 µM (inactive)
GI50 [16]: > 100 µM (inactive)
GI50 [17]: > 100 µM (inactive)
GI50 [18]: > 100 µM (inactive)
GI50 [19]: > 100 µM (inactive)
GI50 [20]: > 100 µM (inactive)
GI50 [21]: > 100 µM (inactive)
GI50 [22]: > 100 µM (inactive)
GI50 [23]: > 100 µM (inactive)
GI50 [24]: > 100 µM (inactive)
GI50 [25]: > 100 µM (inactive)
GI50 [26]: > 100 µM (inactive)
GI50 [27]: > 100 µM (inactive)
GI50 [28]: > 100 µM (inactive)
GI50 [29]: > 100 µM (inactive)
GI50 [30]: > 100 µM (inactive)
GI50 [31]: > 100 µM (inactive)
GI50 [32]: > 100 µM (inactive)
GI50 [33]: > 100 µM (inactive)
GI50 [34]: > 100 µM (inactive)
GI50 [36]: > 100 µM (inactive)
GI50 [37]: > 100 µM (inactive)
GI50 [38]: > 100 µM (inactive)
GI50 [39]: > 100 µM (inactive)
GI50 [40]: > 100 µM (inactive)
GI50 [41]: > 100 µM (inactive)
GI50 [42]: > 100 µM (inactive)
GI50 [43]: > 100 µM (inactive)
GI50 [44]: > 100 µM (inactive)
GI50 [45]: 21.6 µM (inactive)
GI50 [46]: > 100 µM (inactive)
GI50 [47]: > 100 µM (inactive)
GI50 [48]: > 100 µM (inactive)
GI50 [49]: > 100 µM (inactive)
GI50 [50]: > 100 µM (inactive)
GI50 [51]: > 100 µM (inactive)
GI50 [52]: > 100 µM (inactive)
GI50 [53]: 95.9 µM (inactive)
GI50 [54]: > 100 µM (inactive)
GI50 [57]: > 100 µM (inactive)
GI50 [58]: > 100 µM (inactive)
